Among the data in patent publication US4647564A, “Inotropic agents” (Eli Lilly and Company, priority 1986, dated 1987) are ED50 and activity values, retold here.

The term ED50 denotes the dose that gives a 50% effect, or the effect in half of the subjects.

Assay [1] deals with Ventricular contractility in the conscious dog. Nature of the assay: Ventricular contractility in the conscious dog (oral). In kind it is in vivo. The settings on record: Canis lupus familiaris, oral (gelatin capsules), by interpolation, read-out: ED50 (dose required to produce a peak increase in contractility of 50%). From the text:
(§1) The compounds of Formula I are particularly useful as inotropic agents due to their potency, long action of effect, and oral efficacy and are therefore useful in the treatment and prevention of heart failure. For example, the compounds of this invention were examined as to their pharmacodynamic effects on the following test systems. For comparison, 1,3-dihydro-5-(1,4,5,6-tetrahydro-6-oxo-3-pyridazinyl)-2H-indol-2-one (Compound A) and 4,4-dimethyl-1,2,3,4-tetrahydro-6-(1,4,5,6-tetrahydro-6-oxo-3-pyridazinyl)quinolin-2-one (Compound B) as taught in U.S. Pat. No. 4,258,185 (although named somewhat differently), were also tested.
Mongrel dogs of either sex weighing 15-36 kg were chronically instrumented to monitor peak systolic pressure, heart rate, left ventricular pressure and its first derivative, LVdP/dt at 60 mm of mercury. Under halothane-nitrous oxide anesthesia, a precalibrated Konigsberg P22 Pressure Transducer was implanted into the left ventricle through a stab wound at the apex. Following recovery from surgery, a minimum of two weeks was allowed to train the dogs to lie quietly for four-hour periods. This conditioning was necessary to obtain stable, reproducible results from day to day. Dogs were fasted eighteen hours before an experiment. Gross behavioral observations of animals were made throughout each study. Compounds or placebo (lactose) were administered in gelatin capsules. The maximum effects on contractility at various dose levels were determined and plotted and the dose required to produce a 50-percent increase in contractility (ED50) was determined by interpolation.

In assay [2] the test system is Ventricular contractility in the anesthetized dog. Briefly: Ventricular contractility in the anesthetized dog (i.v.). The format is in vivo. Particulars: Canis lupus familiaris, iv, i.v. bolus, by interpolation, read-out: ED50 (dose required to produce a peak increase in contractility of 50%).
Text: as §1
Mongrel dogs of either sex ranging in weight for 7 to 14 kg were used. Anesthesia was induced with sodium pentobarbital (30 mg/kg, i.v.) and maintained with supplemental doses as required. A positive-pressure pump was used to ventilate the dogs through an endotracheal tube (18 strokes/minute, 20 ml/kg stroke^-1), and a heating pad kept the body temperature at 37°-38° C.
Femoral arterial blood pressure was measured through a polyethylene catheter filled with heparin solution (16 units/ml) and connected to a Statham pressure transducer. A strain-gauge arch sutured to the right ventricle of the heart measured cardiac contractility. Tension on the gauge was adjusted to 50 g and the gain of the recorder (Beckman dynograph) was set so that 50 g caused a 10-mm pen deflection. Cardiac contractile tension was measured as millimeters of pen deflection or grams of tension. The test compounds were administered as an i.v. bolus (2-5 ml) in a normal saline vehicle following a 30-45 minute equilibrium period. […] The maximum effects on contractility at various dose levels were determined and plotted and the dose required to produce a 50 % increase in contractility (ED50) was determined by interpolation.

In assay [3] the test system is Cat papillary muscles. Briefly: Positive inotropic activity in isolated cat papillary muscles. The settings on record: Felis catus, control = 100 percent, average of 2 to 8 muscles, read-out: Contractility of papillary muscle, peak response; for activity at 100 µM: 10^-4 M; for activity at 10 µM: 10^-5 M. The format is cell-based.
Text: as §1
Cats of either sex were anesthetized with Metofane (1,1-difluoro-2,2-dichloroethyl methyl ether, Pittman-Moore). Their hearts were immediately removed and the papillary muscles dissected and suspended in individual organ baths. A platinum hook secured one end of the muscle to an electrode mounted in the bottom of the bath, and a silk thread attached the tendon to a Statham isometric transducer. The baths contained Krebs-Henseleit solution (36° C., bubbled with 95 percent oxygen--5 percent carbon dioxide) of the following millimolar composition: NaCl, 118; KCl, 4.5; CaCl2, 2.5; KH2 PO4, 1.1; MgSO4, 1.2; NaHCO3, 25; and glucose, 11.
A base-line tension of 1.5 g was applied to each muscle. Square-wave pulses (5.0 msec. in duration, three times threshold voltage) delivered through the hook electrode and a second electrode positioned near the top of the muscle evoked 12 contractions/minute, which were recorded on a Grass polygraph. After the muscles had equilibrated for 60 minutes, the recorder gain was adjusted so that the pen deflected 10 mm. The test compound was introduced in a solution of normal saline in an amount to bring the final concentration of the compound to 10^-5 or 10^-4 molar. Increases in contractility were tabulated as millimeters of pen deflection in excess of the baseline value. In each experiment the maximum contractility was measured. Test results are summarized in Table I and are expressed as percent of control (control=100 percent). Values are the average of results from 2 to 8 muscles.

Take `O=C1CCC(c2ccc3c(c2)CC(=O)N3)=NN1` [Compound A, 1,3-dihydro-5-(1,4,5,6-tetrahydro-6-oxo-3-pyridazinyl)-2H-indol-2-one, reference compound]: the ED50 in assay [1] is 0.5 mg/kg; in assay [2], 0.01 mg/kg. For the same compound, the activity at 100 µM in assay [3] stood at 152%. For the same compound, the activity at 10 µM in assay [3] is 147%.

`CC1(C)CC(=O)Nc2ccc(C3=NNC(=O)CC3)cc21` [Compound B, 4,4-dimethyl-1,2,3,4-tetrahydro-6-(1,4,5,6-tetrahydro-6-oxo-3-pyridazinyl)quinolin-2-one, reference compound]: the ED50 in assay [1] was greater than 0.5 mg/kg; in assay [2] it was 0.048 mg/kg. In addition, in assay [3], the activity at 100 µM worked out at 169%. For the same compound, in assay [3], the activity at 10 µM was 178%.

Consider `CC1(C)C(=O)Nc2ccc(C3=NNC(=O)CC3)cc21` [Example 1, 1,3-Dihydro-3,3-dimethyl-5-(1,4,5,6-tetrahydro-6-oxo-3-pyridazinyl)-2H-indol-2-one], for which the ED50 in assay [1] was 0.025 mg/kg. Moreover, the ED50 in assay [2] is 0.005 mg/kg. Also, in assay [3], the activity at 100 µM was determined as 208% and the activity at 10 µM was 202%.

With `CN1C(=O)C(C)(C)c2cc(C3=NNC(=O)CC3)ccc21` [Example 2, 1,3-Dihydro-1,3,3-trimethyl-5-(1,4,5,6-tetrahydro-6-oxo-3-pyridazinyl)-2H-indol-2-one], the ED50 in assay [1] was greater than 0.4 mg/kg; in assay [2] it was 0.01 mg/kg.

As to `CC1CC(=O)NN=C1c1ccc2c(c1)C(C)(C)C(=O)N2C` (stereo not shown) [Example 3, 1,3-Dihydro-1,3,3-trimethyl-5-(1,4,5,6-tetrahydro-4-methyl-6-oxo-3-pyridazinyl)-2H-indol-2-one], the ED50 in assay [2] is 0.005 mg/kg.

In the case of `Cc1cc(C2=NNC(=O)CC2)cc2c1NC(=O)C2(C)C` [Example 4, 1,3-Dihydro-3,3,7-trimethyl-5-(1,4,5,6-tetrahydro-6-oxo-3-pyridazinyl)-2H-indol-2-one], the ED50 in assay [2] worked out at 0.0085 mg/kg.

As to `Cc1cc2c(cc1C1=NNC(=O)CC1)C(C)(C)C(=O)N2` [Example 5, 1,3-Dihydro-3,3,6-trimethyl-5-(1,4,5,6-tetrahydro-6-oxo-3-pyridazinyl)-2H-indol-2-one], the ED50 in assay [2] came to 0.02 mg/kg.

Take `CC1CC(c2ccc3c(c2)C(C)(C)C(=O)N3)=NNC1=O` (stereo not shown) [Example 6, 1,3-Dihydro-3,3-dimethyl-5-(1,4,5,6-tetrahydro-5-methyl-6-oxo-3-pyridazinyl)-2H-indol-2-one]: in assay [2], the ED50 came out at 0.021 mg/kg.

With `CC1CC(=O)NN=C1c1ccc2c(c1)C(C)(C)C(=O)N2` (stereo not shown) [Example 7, 1,3-Dihydro-3,3-dimethyl-5-(1,4,5,6-tetrahydro-4-methyl-6-oxo-3-pyridazinyl)-2H-indol-2-one], the ED50 in assay [1] came to 0.05 mg/kg; in assay [2], 0.0025 mg/kg.

Consider `CC1C(=O)Nc2ccc(C3=NNC(=O)CC3)cc21` (stereo not shown) [Example 8, 1,3-Dihydro-3-methyl-5-(1,4,5,6-tetrahydro-6-oxo-3-pyridazinyl)-2H-indol-2-one], for which the figures for the ED50 in assay [1] and in assay [2] were 0.025 mg/kg and 0.0063 mg/kg, respectively.
